In patent US20240002425A1, “NOVEL AMINOALKYL GLUCOSAMINIDE 4-PHOSPHATE DERIVATIVE” (DAIICHI SANKYO COMPANY, LIMITED, priority 2020, published 2024):
Like-named read-outs stand apart in the source and are kept apart here.

What was measured:
SARS-CoV-2 RBD = settings: mouse, in vivo
[1] = system: various allergens (Japanese cedar pollen, mite, ragweed, timothy, peanut, milk); assay: Immunostimulatory effect on various allergens by sublingual administration (allergen-specific IgG titer); assay type: in vivo, mouse; settings: allergen-sensitized mice, sublingual with allergen, up to 12 weeks; all the allergens; compared with allergen alone
Procedure: The compound described in Example 2(2e) was used to study its immunostimulatory effect on various allergens by sublingual administration.
Japanese cedar pollen antigen extracts were prepared by treating Japanese cedar pollen (Yamizo Pollen Study Group) with a solution containing 0.125 M NaHCO3 and 0.5 M NaCl for 24 hours (4° C.), and then insoluble matter was removed by filtration. The concentration of Cry j 1 contained in the extracts was measured, and the extracts were diluted into 12.5 μg/mL (10000 JAU/mL). Allergen scratch extracts (Torii Pharmaceutical Co., Ltd.) were used as mite, ragweed, timothy, peanut, and milk. Allergen sensitization was performed by intramuscularly administering the allergen (20 μL) to the mouse femoral region 1 week before the start of sublingual administration. The allergen scratch extracts of mite, ragweed, timothy, peanut, or milk were diluted 10-fold with PBS and used in allergen sensitization. Sublingual administration was started from 1 week after sensitization. […]
Each allergen was added at 25 μL/well (Japanese cedar pollen, 1 μg Cry j 1/mL; mite, ragweed, timothy, peanut, and milk, 1:1000 diluted) to a plate for ELISA, which was then left standing overnight at 4° C. […] Then, 30 μL of a TMB stop solution was added to each well, and absorbance at 450 nm was measured. […]

human TLR4 = human TLR4 (Homo sapiens, UniProt O00206+Q9Y6Y9); assay: Human TLR4 activating effect (HEK-Blue Human TLR4 Cells, SEAP reporter); assay type: cell-based; settings: 24 hours, SEAP Protein concentration
Chain of human TLR4 (O00206 24-839): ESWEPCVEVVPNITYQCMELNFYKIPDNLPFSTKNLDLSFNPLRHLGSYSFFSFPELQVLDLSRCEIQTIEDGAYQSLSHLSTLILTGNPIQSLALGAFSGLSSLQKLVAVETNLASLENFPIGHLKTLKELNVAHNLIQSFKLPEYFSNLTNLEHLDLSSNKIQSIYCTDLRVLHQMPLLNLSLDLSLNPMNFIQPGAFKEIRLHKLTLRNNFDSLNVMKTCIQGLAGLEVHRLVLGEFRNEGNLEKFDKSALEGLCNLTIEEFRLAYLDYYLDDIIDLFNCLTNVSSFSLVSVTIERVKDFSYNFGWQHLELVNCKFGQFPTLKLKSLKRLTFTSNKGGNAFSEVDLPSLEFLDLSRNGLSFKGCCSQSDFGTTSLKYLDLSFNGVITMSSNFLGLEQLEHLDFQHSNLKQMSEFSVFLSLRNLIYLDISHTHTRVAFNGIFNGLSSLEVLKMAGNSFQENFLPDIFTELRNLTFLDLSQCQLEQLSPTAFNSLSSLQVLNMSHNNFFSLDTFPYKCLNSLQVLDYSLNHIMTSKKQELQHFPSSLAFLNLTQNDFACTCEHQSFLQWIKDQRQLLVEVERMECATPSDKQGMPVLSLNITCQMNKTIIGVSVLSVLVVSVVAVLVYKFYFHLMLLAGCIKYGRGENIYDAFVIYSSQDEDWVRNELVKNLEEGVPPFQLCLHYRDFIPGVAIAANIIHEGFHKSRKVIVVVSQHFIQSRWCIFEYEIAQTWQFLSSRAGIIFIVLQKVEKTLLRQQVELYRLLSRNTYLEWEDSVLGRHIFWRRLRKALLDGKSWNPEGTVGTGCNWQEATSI
Chain of human TLR4 (Q9Y6Y9 17-160 limits assumed): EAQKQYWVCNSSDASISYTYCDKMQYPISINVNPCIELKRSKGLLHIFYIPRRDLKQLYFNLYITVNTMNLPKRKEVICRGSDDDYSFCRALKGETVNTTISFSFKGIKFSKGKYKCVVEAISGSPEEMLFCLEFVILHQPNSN
Procedure: The human TLR4 activating effect was studied using the compounds described in Examples 1 to 17 and monophosphoryl lipid A as Comparative Example A.
Triethanolamine was dissolved at 0.5% (v/v) in injectable distilled water to prepare an aqueous triethanolamine solution. 1 mg of each test drug was dissolved in 0.98 mL of the aqueous triethanolamine solution, and pH of the solution was then adjusted to 7.2 to 7.4 by the addition of 20 μL of 1 M HCl to prepare a 1 mg/mL solution. A dilution series of the test drug was prepared using a medium [DMEM (Nacalai Tesque, Inc.), 10% FBS (Sigma-Aldrich Co. LLC), 50 U/mL penicillin-50 μg/mL streptomycin (Thermo Fisher Scientific Inc.), 1×HEK-Blue Selection (InvivoGen), and 100 μg/mL Normocin (InvivoGen)]. 2×10^5 cells/mL HEK-Blue™ Human TLR4 Cells (InvivoGen) were inoculated to each well of a 96-well microplate for tissue culture (Iwaki), then treated with the test drug, and cultured at 37° C. for 24 hours under 5% CO2. The cells thus cultured were centrifuged at 400×g at 4° C. for 3 minutes. Recombinant SEAP Protein (InvivoGen) was used for a calibration curve. After addition of 180 μL of QUANTI-Blue (InvivoGen) to each well of 96 Well TC-Treated Microplates (Corning, Inc.), 20 μL each of the cell culture supernatant and a standard diluting solution was added to each well, and the plate was left standing at 37° C. for 4 hours. After reaction, absorbance (wavelength: 655 nm) was measured using a microplate reader (PerkinElmer, Inc., EnSpire), and a SEAP Protein concentration was calculated from the calibration curve and used as an index for TLR4 agonist activity. A drug concentration that induced reaction corresponding to 50% of the maximum reaction was calculated as EC50 (ng/mL) from a linear expression using two drug concentrations between which the drug concentration that induced reaction corresponding to 50% of the maximum reaction in each experiment was positioned, and measured values thereof.

[2] = read-out: EC50 (ng/ml) (converted)

CCCCCCCCCCC[C@H](CC(=O)N[C@@H](CO[C@@H]1O[C@H](CO[C@]2(C(=O)O)C[C@@H](O)[C@@H](O)[C@@H]([C@H](O)CO)O2)[C@@H](OP(=O)(O)O)[C@H](OC(=O)C[C@@H](CCCCCCCCCCC)OC(=O)CCCCCCCCC)[C@H]1NC(=O)C[C@@H](CCCCCCCCCCC)OC(=O)CCCCCCCCC)CC(=O)O)OC(=O)CCCCCCCCC [Example 2(2e), Ammonium (3R)-3-{[(3R)-3-(decanoyloxy)tetradecanoyl]amino}-4-({3-O-[(3R)-3-(decanoyloxy)tetradecanoyl]-2-{[(3R)-3-(decanoyloxy)tetradecanoyl]amino}-2-deoxy-6-O-(3-deoxy-α-D-manno-oct-2-ulopyranonosyl)-4-O-phosphono-β-D-glucopyranosyl}oxy)butanoate]
anti-RBD IgA in blood (SARS-CoV-2 RBD): markedly high
anti-RBD IgA in nasal wash (SARS-CoV-2 RBD): induced at a high level
anti-RBD IgG in blood (SARS-CoV-2 RBD): markedly high
allergen-specific IgG titer in blood [1]: markedly higher
EC50 (human TLR4; [2]): 0.0499 nM

CCCCCCCCCCC[C@H](CC(=O)NC1C(CC[C@H](NC(=O)C[C@@H](CCCCCCCCCCC)OC(=O)CCCCCCCCC)C(=O)O)OC(COC2(C(=O)O)CC(O)C(O)C([C@H](O)CO)O2)C(OP(=O)(O)O)C1OC(=O)C[C@@H](CCCCCCCCCCC)OC(=O)CCCCCCCCC)OC(=O)CCCCCCCCC (stereo partly drawn) [Example 14(14d), Ammonium 5,9-anhydro-7-O-[(3R)-3-(decanoyloxy)tetradecanoyl]-2,6-bis{[(3R)-3-(decanoyloxy)tetradecanoyl]amino}-2,3,4,6-tetradeoxy-10-O-(3-deoxy-α-D-manno-oct-2-ulopyranonosyl)-8-O-phosphono-D-erythro-L-galacto-decanoate]
EC50 (human TLR4; [2]): 0.188 nM

CCCCCCCCCCC[C@H](CC(=O)NC1C(CC[C@H](NC(=O)C[C@@H](CCCCCCCCCCC)OC(=O)CCCCCCCCC)C(=O)O)OC(COC2(C(=O)O)CC(OC3(C(=O)O)CC(O)C(O)C([C@H](O)CO)O3)C(O)C([C@H](O)CO)O2)C(OP(=O)(O)O)C1OC(=O)C[C@@H](CCCCCCCCCCC)OC(=O)CCCCCCCCC)OC(=O)CCCCCCCCC (stereo partly drawn) [Example 15(15d), Ammonium 3-deoxy-α-D-manno-oct-2-ulopyranonosyl-(2-+4)-3-deoxy-α-D-manno-oct-2-ulopyranonosyl-(2-+10)-5,9-anhydro-7-O-[(3R)-3-(decanoyloxy)tetradecanoyl]-2,6-bis{[(3R)-3-(decanoyloxy)tetradecanoyl]amino}-2,3,4,6-tetradeoxy-8-O-phosphono-D-erythro-L-galacto-decanoate]
EC50 (human TLR4; [2]): 0.4 nM

CCCCCCCCCCC[C@H](CC(=O)NC1C(CC[C@H](NC(=O)C[C@@H](CCCCCCCCCCC)OC(=O)CCCCCCCCC)C(=O)O)OC(CF)C(OP(=O)(O)O)C1OC(=O)C[C@@H](CCCCCCCCCCC)OC(=O)CCCCCCCCC)OC(=O)CCCCCCCCC (stereo partly drawn) [Example 16(16b), Ammonium 5,9-anhydro-7-O-[(3R)-3-(decanoyloxy)tetradecanoyl]-2,6-bis{[(3R)-3-(decanoyloxy)tetradecanoyl]amino}-2,3,4,6,10-pentadeoxy-10-fluoro-8-O-phosphono-D-erythro-L-galacto-decanoate]
EC50 (human TLR4; [2]): 1.01 nM

CCCCCCCCCCC[C@H](CC(=O)NC1C(CC[C@H](NC(=O)C[C@@H](CCCCCCCCCCC)OCCCCCCCCCC)C(=O)O)OC(CO)C(OP(=O)(O)O)C1OC(=O)C[C@@H](CCCCCCCCCCC)OCCCCCCCCCC)OCCCCCCCCCC (stereo partly drawn) [Example 17(17h), Ammonium 5,9-anhydro-7-O-[(3R)-3-(decyloxy)tetradecanoyl]-2,6-bis{[(3R)-3-(decyloxy)tetradecanoyl]amino}-2,3,4,6-tetradeoxy-8-O-phosphono-D-erythro-L-galacto-decanoate]
EC50 (human TLR4; [2]): 0.969 nM

monophosphoryl lipid A [Comparative Example A, reference compound]
EC50 (human TLR4): >0.01 µg/mL
